Results: ChEMBL document CHEMBL3817840, “Discovery of CNS Penetrant CXCR2 Antagonists for the Potential Treatment of CNS Demyelinating Disorders” (ACS Med Chem Lett, 2016)

Assays:
[1] = molecular target: T1, C-X-C chemokine receptor type 2 (Homo sapiens, UniProt P25025); test: Antagonist activity at human recombinant Gal4-VP16 fused-CXCR2 assessed as inhibition of CXCL1-mediated lactamase reporter gene expression after overnight incubation
T1 sequence (P25025 whole entry): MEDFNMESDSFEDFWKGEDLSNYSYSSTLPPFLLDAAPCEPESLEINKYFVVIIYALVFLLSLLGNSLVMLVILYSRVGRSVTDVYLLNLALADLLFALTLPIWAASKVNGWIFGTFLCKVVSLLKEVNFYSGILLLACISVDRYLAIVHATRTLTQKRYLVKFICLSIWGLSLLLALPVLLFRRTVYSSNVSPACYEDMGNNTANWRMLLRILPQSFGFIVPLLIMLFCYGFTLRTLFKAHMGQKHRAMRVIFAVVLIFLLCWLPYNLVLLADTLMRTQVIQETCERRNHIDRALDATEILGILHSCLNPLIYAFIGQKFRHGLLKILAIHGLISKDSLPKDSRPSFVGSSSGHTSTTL

[2] = (§1) AUC (0 to 4 hrs) in C57BL/6 mouse blood at 2 mg/kg, ip by UPLC/MS/MS analysis; assay type: ADME, organism-based; set-up: dose 2 mg/kg, time < 4 hr, route intraperitoneal; conditions: C57BL/6, mouse, blood
Brain = test: AUC (0 to 4 hrs) in C57BL/6 mouse brain at 2 mg/kg, ip by UPLC/MS/MS analysis; assay type: ADME, organism-based; set-up: dose 2 mg/kg, time < 4 hr, route intraperitoneal; conditions: in vivo
[3] = Ratio of drug level in C57BL/6 mouse brain to blood at 2 mg/kg, ip; assay type: ADME, organism-based; conditions: for Kp: C57BL/6, mouse, brain/blood; for Ratio: mouse, brain, BLD = below limit of detection
[4] = Half life in C57BL/6 mouse at 1 mg/kg, iv; assay type: ADME, organism-based; conditions: in vivo
[5] = Clearance in C57BL/6 mouse blood at 1 mg/kg, iv; assay type: ADME, organism-based
[6] = Volume of distribution at steady state in C57BL/6 mouse at 1 mg/kg, iv; assay type: ADME, organism-based; conditions: in vivo, read-out: Vdss
[7] = Cmax in C57BL/6 mouse at 2 mg/kg, po; assay type: ADME, organism-based; set-up: dose 2 mg/kg, route oral; conditions: in vivo
Mus musculus = test: Dose normalized AUC (0 to infinity) in C57BL/6 mouse at 2 mg/kg, po; assay type: ADME, organism-based; conditions: in vivo
[8] = Oral bioavailability in C57BL/6 mouse at 2 mg/kg; assay type: ADME, organism-based; conditions: in vivo
[9] = Fraction unbound in human plasma; assay type: ADME, cell-free
Cytochrome P450 1A2 = molecular target: T2, Cytochrome P450 1A2 (Homo sapiens, UniProt P05177); test: Inhibition of CYP1A2 (unknown origin); assay type: ADME
T2 sequence (P05177 whole entry): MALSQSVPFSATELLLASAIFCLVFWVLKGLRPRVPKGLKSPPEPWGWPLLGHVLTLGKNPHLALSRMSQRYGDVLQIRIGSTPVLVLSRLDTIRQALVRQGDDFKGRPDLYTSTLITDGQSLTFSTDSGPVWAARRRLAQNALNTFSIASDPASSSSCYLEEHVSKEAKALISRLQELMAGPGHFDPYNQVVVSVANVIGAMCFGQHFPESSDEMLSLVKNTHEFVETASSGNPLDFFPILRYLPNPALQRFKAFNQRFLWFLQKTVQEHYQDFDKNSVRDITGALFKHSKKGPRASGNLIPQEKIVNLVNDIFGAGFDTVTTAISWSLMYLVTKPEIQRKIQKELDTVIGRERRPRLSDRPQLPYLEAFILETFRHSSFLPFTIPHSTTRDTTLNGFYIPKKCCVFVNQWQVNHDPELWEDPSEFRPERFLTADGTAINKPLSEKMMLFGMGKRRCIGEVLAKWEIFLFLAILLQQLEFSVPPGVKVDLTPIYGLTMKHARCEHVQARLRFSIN

Cytochrome P450 2D6 = Cytochrome P450 2D6 (Homo sapiens, UniProt P10635); test: Inhibition of CYP2D6 (unknown origin); assay type: ADME
Chain of Cytochrome P450 2D6 (P10635 whole entry): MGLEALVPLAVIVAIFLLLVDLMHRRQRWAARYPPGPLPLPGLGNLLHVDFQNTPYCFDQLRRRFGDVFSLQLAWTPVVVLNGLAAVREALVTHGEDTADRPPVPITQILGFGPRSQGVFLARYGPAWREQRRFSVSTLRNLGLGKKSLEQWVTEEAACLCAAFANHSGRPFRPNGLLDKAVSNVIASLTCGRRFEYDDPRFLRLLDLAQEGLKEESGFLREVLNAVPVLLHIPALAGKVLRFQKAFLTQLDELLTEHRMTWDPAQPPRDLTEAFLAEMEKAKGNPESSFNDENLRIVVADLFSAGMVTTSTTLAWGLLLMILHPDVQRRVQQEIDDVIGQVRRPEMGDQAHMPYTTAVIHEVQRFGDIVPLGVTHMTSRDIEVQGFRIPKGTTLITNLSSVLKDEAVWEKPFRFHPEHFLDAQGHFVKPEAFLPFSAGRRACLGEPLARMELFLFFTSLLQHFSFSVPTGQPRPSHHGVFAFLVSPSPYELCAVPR

Cytochrome P450 2C19 = Cytochrome P450 2C19 (Homo sapiens, UniProt P33261); test: Inhibition of CYP2C19 (unknown origin); assay type: ADME
Chain of Cytochrome P450 2C19 (P33261 whole entry): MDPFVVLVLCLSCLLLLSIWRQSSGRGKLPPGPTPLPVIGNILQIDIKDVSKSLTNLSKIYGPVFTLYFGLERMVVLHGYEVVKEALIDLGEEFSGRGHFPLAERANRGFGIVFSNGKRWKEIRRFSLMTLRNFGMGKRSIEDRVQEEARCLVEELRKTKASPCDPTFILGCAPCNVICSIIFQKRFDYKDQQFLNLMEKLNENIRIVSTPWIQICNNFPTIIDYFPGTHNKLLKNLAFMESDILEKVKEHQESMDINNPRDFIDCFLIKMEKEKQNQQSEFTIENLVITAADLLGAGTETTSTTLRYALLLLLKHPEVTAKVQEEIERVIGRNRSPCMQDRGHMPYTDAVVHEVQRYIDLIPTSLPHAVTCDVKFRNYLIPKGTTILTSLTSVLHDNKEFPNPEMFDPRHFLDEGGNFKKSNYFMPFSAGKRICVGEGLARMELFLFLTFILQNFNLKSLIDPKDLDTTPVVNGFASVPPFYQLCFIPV

Cytochrome P450 3A4 = Cytochrome P450 3A4 (Homo sapiens, UniProt P08684); test: Inhibition of CYP3A4 (unknown origin); assay type: ADME
Chain of Cytochrome P450 3A4 (P08684 whole entry): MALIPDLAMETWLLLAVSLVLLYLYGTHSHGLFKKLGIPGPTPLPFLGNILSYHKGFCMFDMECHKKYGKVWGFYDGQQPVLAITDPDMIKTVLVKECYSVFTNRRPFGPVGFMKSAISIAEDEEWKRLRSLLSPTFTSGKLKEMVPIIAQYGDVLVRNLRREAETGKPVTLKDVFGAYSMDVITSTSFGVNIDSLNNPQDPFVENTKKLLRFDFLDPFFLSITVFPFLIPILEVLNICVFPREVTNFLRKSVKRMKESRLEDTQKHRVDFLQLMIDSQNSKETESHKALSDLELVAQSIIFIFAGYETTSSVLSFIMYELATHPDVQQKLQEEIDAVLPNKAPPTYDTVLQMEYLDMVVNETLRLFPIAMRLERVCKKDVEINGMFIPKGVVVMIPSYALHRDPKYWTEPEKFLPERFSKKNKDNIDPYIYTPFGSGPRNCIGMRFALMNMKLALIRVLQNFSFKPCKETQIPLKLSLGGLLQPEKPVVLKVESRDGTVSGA

[10] = Stability of the compound assessed as GSH conjugate formation; assay type: physicochemical
Cytochrome P450 2C9 = Cytochrome P450 2C9 (Homo sapiens, UniProt P11712)
Chain of Cytochrome P450 2C9 (P11712 whole entry): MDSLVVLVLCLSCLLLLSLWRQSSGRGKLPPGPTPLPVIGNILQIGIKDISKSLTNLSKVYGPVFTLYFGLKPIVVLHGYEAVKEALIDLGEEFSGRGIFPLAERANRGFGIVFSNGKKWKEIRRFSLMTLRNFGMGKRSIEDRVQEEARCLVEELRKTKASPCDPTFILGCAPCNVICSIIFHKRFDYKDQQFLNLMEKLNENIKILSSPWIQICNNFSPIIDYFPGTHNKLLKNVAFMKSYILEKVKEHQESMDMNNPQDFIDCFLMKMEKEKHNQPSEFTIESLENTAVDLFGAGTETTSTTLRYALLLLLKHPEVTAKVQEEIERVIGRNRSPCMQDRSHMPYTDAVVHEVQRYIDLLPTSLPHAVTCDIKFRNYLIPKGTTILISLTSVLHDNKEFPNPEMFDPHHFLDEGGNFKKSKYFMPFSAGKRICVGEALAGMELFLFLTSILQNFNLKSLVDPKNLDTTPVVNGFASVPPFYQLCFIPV
Description: Inhibition of CYP2C9 (unknown origin)

Blood = test: as §1; assay type: ADME, organism-based; set-up: dose 2 mg/kg, time < 4 hr, route intraperitoneal; conditions: mouse, in vivo, 4 h, BLD = below limit of detection

Row | Compound | IC50 [1] | AUC(0-t) at 4 h [2] | AUC (Brain) | Kp [3] | further results
1 | CN1CC[C@H](S(=O)(=O)c2c(Cl)ccc(NC(=O)Nc3cccc(Cl)c3Cl)c2O)C1 | 1.26 nM | 577 ng·h/mL | 164 ng·h/g | 0.28 | half-life [4]: 1.9 h; clearance [5]: 15.4 mL/min/kg; Vd [6]: 1.72 L/kg; Cmax [7]: 216 ng/mL; AUC/dose (Mus musculus): 271 ng·h/mL/mg/kg; bioavailability [8]: 26%; Fu [9]: 0.021%; IC50 (Cytochrome P450 1A2): > 10000 nM; IC50 (Cytochrome P450 2D6): > 10000 nM; IC50 (Cytochrome P450 2C19): > 10000 nM; IC50 (Cytochrome P450 3A4): > 10000 nM; Stability [10]: Stable; IC50 (Cytochrome P450 2C9): > 10000 nM
2 | CN1CCC[C@H](S(=O)(=O)c2c(Cl)ccc(NC(=O)Nc3cccc(F)c3Cl)c2O)CC1 | 0.501 nM | 463 ng·h/mL | 99.1 ng·h/g | 0.21 | –
3 | CCS(=O)(=O)c1c(Cl)ccc(NC(=O)Nc2cccc(Cl)c2Cl)c1O | 0.501 nM | 256 ng·h/mL | 73.9 ng·h/g | 0.29 | –
4 | CCN1CCN(S(=O)(=O)c2c(Cl)ccc(NC(=O)Nc3cccc(F)c3Cl)c2O)CC1 | 1 nM | 189 ng·h/mL | 128 ng·h/g | 0.67 | –
5 | CN1CC2(CC(S(=O)(=O)c3c(Cl)ccc(NC(=O)Nc4cccc(F)c4Cl)c3O)C2)C1 | 0.398 nM | 1050 ng·h/mL | 22.9 ng·h/g | 0.02 | –
6 | CC(C)S(=O)(=O)c1c(Cl)ccc(NC(=O)Nc2cccc(F)c2Cl)c1O | 0.501 nM | 198 ng·h/mL | 95 ng·h/g | 0.48 | –
7 | O=C(Nc1ccc(Cl)c(C(=O)N2CCCC2)c1O)Nc1cccc(F)c1Cl | 1 nM | – | – | – | AUC (Blood): BLD; AUC (Brain; BLD = below limit of detection): BLD; Ratio [3]: BLD
8 | CC(C)N1CCN(S(=O)(=O)c2c(Cl)ccc(NC(=O)Nc3cccc(F)c3Cl)c2O)CC1 | 1.58 nM | 52.9 ng·h/mL | 99 ng·h/g | 1.87 | –
9 | CC(C)S(=O)(=O)c1c(Cl)ccc(NC(=O)Nc2cccc(Cl)c2Cl)c1O | 0.631 nM | 290 ng·h/mL | 180 ng·h/g | 0.62 | –
10 | O=C(Nc1ccc(Cl)c(S(=O)(=O)C2CCNCC2)c1O)Nc1cccc(Cl)c1Cl | 2 nM | 904 ng·h/mL | 29.8 ng·h/g | 0.03 | –
11 | C[C@@H]1CN(S(=O)(=O)c2c(Cl)ccc(NC(=O)Nc3cccc(F)c3Cl)c2O)C[C@H](C)O1 | 3.98 nM | 279 ng·h/mL | 96 ng·h/g | 0.35 | –
12 | CC(C)(C)S(=O)(=O)c1c(Cl)ccc(NC(=O)Nc2cccc(F)c2Cl)c1O | 0.501 nM | 355 ng·h/mL | 369 ng·h/g | 1.04 | –
13 | CN1CC[C@H](S(=O)(=O)c2c(Cl)ccc(NC(=O)Nc3cccc(F)c3Cl)c2O)C1 | 0.501 nM | 432 ng·h/mL | 136 ng·h/g | 0.32 | –
14 | O=C(Nc1ccc(Cl)c(S(=O)(=O)C2CCC2)c1O)Nc1cccc(F)c1Cl | 0.316 nM | 103 ng·h/mL | 28.4 ng·h/g | 0.28 | –
15 | O=C(Nc1ccc(Cl)c(S(=O)(=O)C2CCCC2)c1O)Nc1cccc(F)c1Cl | 0.316 nM | 2.98 ng·h/mL | 1.26 ng·h/g | 0.42 | –
16 | O=C(Nc1ccc(Cl)c(S(=O)(=O)C2CCOC2)c1O)Nc1cccc(Cl)c1Cl (centres undefined) | 0.501 nM | 284 ng·h/mL | 59 ng·h/g | 0.21 | –
17 | CN1CCN(S(=O)(=O)c2c(Cl)ccc(NC(=O)Nc3cccc(Cl)c3Cl)c2O)CC1 | 0.794 nM | 303 ng·h/mL | 151 ng·h/g | 0.5 | –
18 | CN1CCC2(CC1)CC(S(=O)(=O)c1c(Cl)ccc(NC(=O)Nc3cccc(F)c3Cl)c1O)C2 | 2 nM | 1390 ng·h/mL | 111 ng·h/g | 0.08 | –
19 | CN1CCC2(CCC(S(=O)(=O)c3c(Cl)ccc(NC(=O)Nc4cccc(F)c4Cl)c3O)CC2)CC1 | 0.398 nM | 1480 ng·h/mL | 69.3 ng·h/g | 0.05 | –
20 | O=C(Nc1ccc(Cl)c(C(=O)N2CCCCC2)c1O)Nc1cccc(F)c1Cl | 0.501 nM | – | – | – | AUC (Blood): BLD; AUC (Brain; BLD = below limit of detection): BLD; Ratio [3]: BLD
21 | O=C(Nc1ccc(Cl)c(S(=O)(=O)C2CCOCC2)c1O)Nc1cccc(Cl)c1Cl | 0.794 nM | 290 ng·h/mL | 37 ng·h/g | 0.13 | –
22 | O=C(Nc1ccc(Cl)c(S(=O)(=O)C2CCCCC2)c1O)Nc1cccc(F)c1Cl | 0.316 nM | – | – | – | AUC (Blood): BLD; AUC (Brain; BLD = below limit of detection): BLD; Ratio [3]: BLD
23 | CCN1CCC(S(=O)(=O)c2c(Cl)ccc(NC(=O)Nc3cccc(F)c3Cl)c2O)CC1 | 1.26 nM | 684 ng·h/mL | 244 ng·h/g | – | half-life [4]: 2.3 h; clearance [5]: 30.8 mL/min/kg; Vd [6]: 2.82 L/kg; Cmax [7]: 125 ng/mL; AUC/dose (Mus musculus): 212 ng·h/mL/mg/kg; bioavailability [8]: 41%; Fu [9]: 0.036%; IC50 (Cytochrome P450 1A2): > 10000 nM; IC50 (Cytochrome P450 2D6): > 10000 nM; IC50 (Cytochrome P450 2C19): > 10000 nM; IC50 (Cytochrome P450 3A4): > 10000 nM; IC50 (Cytochrome P450 2C9): > 10000 nM
24 | CN1CCN(S(=O)(=O)c2c(Cl)ccc(NC(=O)Nc3cccc(F)c3Cl)c2O)CC1 | 0.794 nM | 176 ng·h/mL | 83 ng·h/g | 0.47 | –
25 | C[C@@H]1CN(S(=O)(=O)c2c(Cl)ccc(NC(=O)Nc3cccc(Cl)c3Cl)c2O)C[C@H](C)O1 | 10 nM | 519 ng·h/mL | 73 ng·h/g | 0.14 | –
